Test results as given in US5994334A, “Androgen synthesis inhibitors” (priority 1997, dated 1999).
Where two headings read alike, the source gives them in different places.

Tests used:
adrenal C17,20-lyase = test: Inhibition of adrenal C17,20-lyase; format: biochemical; settings: guinea pig adrenal
Experimental: (§1) These studies were carried out using guinea pig adrenals. In contrast to the rat, the guinea pig synthesizes cortisol, like the human. […] I-5 and I-7 were of interest, as they had relatively little (4%) or no effect on the adrenal 17α-hydroxylase required for cortisol synthesis but had moderately strong effects on the C17,20 -lyase causing reduction in adrenal androgen synthesis (77% and 63%, respectively).

[1] = target: T1, Human Prostatic 5α-Reductase (Homo sapiens, UniProt P31213); test: Inhibition of human prostatic 5α-reductase (prostatic microsomes, [3H]testosterone); settings: for inhibition at 0.01 µM: read-out: % Inhibition of 5α-reductase, [I] 10 nM; for inhibition at 0.1 µM: read-out: % Inhibition of 5α-reductase, [I] 100 nM
T1 sequence (P31213 1-254): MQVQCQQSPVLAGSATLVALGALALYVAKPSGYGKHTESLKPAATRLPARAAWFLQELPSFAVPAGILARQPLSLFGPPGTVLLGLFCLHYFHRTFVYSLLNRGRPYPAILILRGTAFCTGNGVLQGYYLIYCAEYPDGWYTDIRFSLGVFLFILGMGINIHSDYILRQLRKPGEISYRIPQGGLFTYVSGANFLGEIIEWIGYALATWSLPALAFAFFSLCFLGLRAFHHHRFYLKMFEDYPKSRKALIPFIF

[2] = target: T2, Human Testicular C17,20-lyase (Homo sapiens, UniProt P05093); test: Inhibition of human testicular C17,20-lyase (pregnenolone substrate, testicular microsomes); format: biochemical
T2 construct: incubating human testicular microsomes; from tissue; host or cells: human testis, microsomes
T2 sequence (P05093 1-508): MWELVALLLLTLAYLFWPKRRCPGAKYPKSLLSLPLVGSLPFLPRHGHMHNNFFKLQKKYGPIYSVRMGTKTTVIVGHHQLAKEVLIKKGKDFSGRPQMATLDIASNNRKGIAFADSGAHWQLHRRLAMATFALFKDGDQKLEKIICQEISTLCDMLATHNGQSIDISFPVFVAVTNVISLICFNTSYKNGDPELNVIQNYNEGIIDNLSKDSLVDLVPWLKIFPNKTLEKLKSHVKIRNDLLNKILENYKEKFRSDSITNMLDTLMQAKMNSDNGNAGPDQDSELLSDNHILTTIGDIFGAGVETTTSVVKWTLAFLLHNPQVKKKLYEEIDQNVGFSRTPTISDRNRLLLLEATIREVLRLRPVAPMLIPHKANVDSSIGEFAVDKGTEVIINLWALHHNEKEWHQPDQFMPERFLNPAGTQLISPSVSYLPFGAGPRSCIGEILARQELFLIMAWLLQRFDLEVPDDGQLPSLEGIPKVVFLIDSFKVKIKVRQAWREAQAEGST
Summary of the method: (§2)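 Human testicular microsomes were incubated with radiolabeled pregnenolone and a range of test compound concentrations. Substrate, 17α-hydroxypregnenolone and DHEA were separated and quantified by reverse-phase HPLC. Hydroxylase activity came from total conversion to 17α-hydroxypregnenolone plus DHEA; lyase activity from conversion to DHEA alone.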

[3] = target: T3, Human Testicular 17α-Hydroxylase (Homo sapiens, UniProt P05093); test: Inhibition of human testicular 17α-hydroxylase (pregnenolone substrate, testicular microsomes); format: biochemical; settings: IC50 17α-OHase
T3 construct: incubating human testicular microsomes; from tissue; host or cells: human testis, microsomes
T3 sequence (P05093 1-508): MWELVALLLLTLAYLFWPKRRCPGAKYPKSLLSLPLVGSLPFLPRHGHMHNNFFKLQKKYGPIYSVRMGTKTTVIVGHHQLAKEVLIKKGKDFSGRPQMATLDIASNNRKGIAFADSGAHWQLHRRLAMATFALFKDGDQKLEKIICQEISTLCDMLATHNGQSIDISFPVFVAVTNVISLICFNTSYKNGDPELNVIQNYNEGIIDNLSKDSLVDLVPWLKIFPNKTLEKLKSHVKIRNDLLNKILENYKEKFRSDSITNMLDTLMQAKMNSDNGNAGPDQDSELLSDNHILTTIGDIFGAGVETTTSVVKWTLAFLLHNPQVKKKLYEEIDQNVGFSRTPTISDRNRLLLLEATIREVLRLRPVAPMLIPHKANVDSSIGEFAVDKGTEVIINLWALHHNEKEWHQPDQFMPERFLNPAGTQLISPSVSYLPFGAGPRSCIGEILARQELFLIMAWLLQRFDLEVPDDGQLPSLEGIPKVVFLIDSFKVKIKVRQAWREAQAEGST
Summary of the method: as §2

adrenal 17α-hydroxylase = test: Inhibition of adrenal 17α-hydroxylase; format: biochemical; settings: guinea pig adrenal
Experimental: as §1

[4] = target: T4, human 17α-hydroxylase/C17,20-lyase (Homo sapiens, UniProt P05093); test: Inhibition of human testicular 17α-hydroxylase/C17,20-lyase (enzyme complex as a whole); format: biochemical; settings: for inhibition of 17α-hydroxylase/C17,20-lyase (in words): NI = no inhibition
T4 construct: incubating human testicular microsomes; from tissue; host or cells: human testis, microsomes
T4 sequence (P05093 1-508): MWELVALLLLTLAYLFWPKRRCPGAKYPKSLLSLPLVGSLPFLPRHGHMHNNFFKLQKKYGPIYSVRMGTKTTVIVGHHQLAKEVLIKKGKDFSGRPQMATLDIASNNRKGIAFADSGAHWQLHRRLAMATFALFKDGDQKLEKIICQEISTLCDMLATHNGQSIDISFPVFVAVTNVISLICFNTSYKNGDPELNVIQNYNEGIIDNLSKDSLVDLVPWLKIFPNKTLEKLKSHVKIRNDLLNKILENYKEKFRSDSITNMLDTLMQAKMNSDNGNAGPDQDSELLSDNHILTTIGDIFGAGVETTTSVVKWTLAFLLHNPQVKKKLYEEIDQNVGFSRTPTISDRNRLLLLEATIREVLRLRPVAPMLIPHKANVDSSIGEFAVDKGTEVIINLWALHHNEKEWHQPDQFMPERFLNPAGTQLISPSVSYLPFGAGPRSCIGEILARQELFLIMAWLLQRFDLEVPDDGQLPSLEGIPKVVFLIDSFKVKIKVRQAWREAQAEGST
Summary of the method: as §2

[5] = tested on: mutant AR which is expressed in LNCaP cells; test: Androgen receptor-mediated gene transcription, mutant AR of LNCaP cells (luciferase, CV1 cells); format: cell-based, human
[6] = tested on: rat 17α-hydroxylase/C17,20-lyase; test: Inhibition of rat 17α-hydroxylase/C17,20-lyase; format: biochemical
Source text: (§3) Studies in normal male rats have been carried out with 4-pregnen-3-one-20β-carboxaldehyde (I-16) (Li et al., 1992) and with its 20-carboxaldoxime (I-23)(Li et al., 1995).

[7] = tested on: LNCaP human prostatic tumors; test: Human prostatic cancer (LNCaP) xenograft in male nude mice; format: in vivo, human (LNCaP) tumors in BALB/c male athymic mice; settings: 1 mg/mouse/day s.c.
Experimental: We have reported that inoculation of MCF-7 breast cancer cells in Matrigel increases mammary tumor formation in nude mice (Yue et al., 1994). The same procedure was therefore utilized to develop tumors from human prostatic cancer cells (LNCAP) in male nude mice. BALB/c male athymic mice, 4-6 weeks old, were inoculated sc with LNCaP cells suspended in Matrigel (10 mg/ml). Four sites per mouse were injected with 1.8×10^6 cells in 0.1 ml Matrigel. Treatment began when the tumor reached about 100 mm^3 in volume. Tumors were measured before the treatment began and once a week during treatment. Tumor volume was calculated by the formula 4/3πr1^2 r2 (r1 <r2).At the end of treatment, the mice were sacrificed and individual tumors were weighed. The latency of tumor development was 30-40 days and overall tumorigenicity was 82%.
In a further experiment, two mice were treated with I-16 (1 mg/mouse/day, s.c.) beginning 45 days after cell inoculation. Two mice received vehicle as controls. […] The mean tumor weight was 198.78±72 mg in I-16 treated mice compared to 386.3±147.2 mg in the control group. In other experiments, I-47 and I-49 were effective in controlling tumor growth. The total tumor volume of the control mice increased to 884.0% of the initial volume.

normal male rats = test: In vivo studies in normal male rats: hormone levels; set-up: species or system rat; settings: rat
Source text: as §3

[8] = target: human androgen receptor (AR) (Homo sapiens, UniProt P10275); test: Androgen receptor-mediated gene transcription, wild-type AR (luciferase, CV1 cells); format: cell-based; settings: against DHT stimulation
Chain of human androgen receptor (AR) (P10275 whole entry): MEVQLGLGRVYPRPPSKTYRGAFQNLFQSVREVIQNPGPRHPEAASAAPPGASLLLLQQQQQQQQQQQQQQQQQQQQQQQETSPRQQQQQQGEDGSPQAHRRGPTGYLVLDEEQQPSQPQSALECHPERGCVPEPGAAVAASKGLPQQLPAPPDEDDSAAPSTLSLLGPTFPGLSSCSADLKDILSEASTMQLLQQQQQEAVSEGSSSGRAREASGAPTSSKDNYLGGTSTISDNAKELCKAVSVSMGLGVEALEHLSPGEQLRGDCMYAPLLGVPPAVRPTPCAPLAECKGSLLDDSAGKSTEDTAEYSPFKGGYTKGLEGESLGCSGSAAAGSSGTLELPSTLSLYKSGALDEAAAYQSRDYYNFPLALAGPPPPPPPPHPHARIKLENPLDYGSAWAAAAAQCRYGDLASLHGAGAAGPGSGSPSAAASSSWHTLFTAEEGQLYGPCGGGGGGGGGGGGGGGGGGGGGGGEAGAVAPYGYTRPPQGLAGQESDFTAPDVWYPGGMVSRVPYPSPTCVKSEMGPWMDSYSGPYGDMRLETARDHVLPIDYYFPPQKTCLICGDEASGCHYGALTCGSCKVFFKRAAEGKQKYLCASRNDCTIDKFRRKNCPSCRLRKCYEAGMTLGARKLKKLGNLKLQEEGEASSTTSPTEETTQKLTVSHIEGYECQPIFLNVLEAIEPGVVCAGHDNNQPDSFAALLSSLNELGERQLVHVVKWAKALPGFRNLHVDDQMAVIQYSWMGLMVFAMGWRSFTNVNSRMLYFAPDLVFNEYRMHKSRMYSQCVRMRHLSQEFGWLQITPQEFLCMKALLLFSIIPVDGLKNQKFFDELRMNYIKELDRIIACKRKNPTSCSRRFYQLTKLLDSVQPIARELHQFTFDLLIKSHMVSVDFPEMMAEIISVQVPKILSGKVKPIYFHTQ

## CC(=NO)C1=CC[C@H]2[C@@H]3CC=C4C[C@@H](O)CC[C@]4(C)[C@H]3CC[C@]12C [Compound I-5, 16-dehydropregnenolone-20-oxime]
Adrenal C17,20-lyase
  reduction in adrenal androgen synthesis (C17,20-lyase): 77%
[1]
  inhibition at 0.01 µM: 0%
  inhibition at 0.1 µM: 5.92%
[2]; IC50 C17,20 lyase
  IC50: 16 nM
[3]
  IC50: 16 nM
Adrenal 17α-hydroxylase; 17α-hydroxylase required for cortisol synthesis
  effect on adrenal 17α-hydroxylase: 4%
[4]
  inhibition of 17α-hydroxylase/C17,20-lyase (in words): potent inhibition
[4]; vs I-1
  fold more potent inhibition than 20-oxime (I-1): 35 fold

## C[C@]12CC[C@H]3[C@@H](CC=C4C[C@@H](O)CC[C@@]43C)[C@@H]1CC[C@@H]2[C@]1(C)CO1 [Compound I-7]
Adrenal C17,20-lyase
  reduction in adrenal androgen synthesis (C17,20-lyase): 63%
[1]
  inhibition at 0.01 µM: 13.6%
  inhibition at 0.1 µM: 12.1%
[2]; Table 1, NI = no inhibition, CI = complete inhibition, read-out: IC50 C17,20 lyase
  IC50: 720 nM
Adrenal 17α-hydroxylase
  effect on adrenal 17α-hydroxylase (in words): no effect

## C[C@H](C=O)[C@H]1CC[C@H]2[C@@H]3CCC4=CC(=O)CC[C@]4(C)[C@H]3CC[C@]12C [Compound I-16, 4-pregnen-3-one-20β-carboxaldehyde]
[5]
  agonism/antagonism at mutant AR of LNCaP cells (in words): agonists
[6]
  inhibition of rat 17α-hydroxylase/C17,20-lyase (in words): inhibit rat 17α-hydroxylase/C17,20 -lyase
[1]
  inhibition at 0.01 µM: 20.5%
  inhibition at 0.1 µM: 87.2%
[7]; 3 weeks, two mice, control 281%
  total tumor volume (% of initial volume), 3 weeks: 173.6%
[7]; control 386.3±147.2 mg
  mean tumor weight, 3-week experiment: 198.78 ± 72 mg
Normal male rats
  reduction of testosterone and DHT levels in serum, testicular and prostatic tissues (in words): significantly reducing testosterone and DHT levels
[8]
  antagonism of wild-type AR (in words): dose-dependent antagonism
[4]
  inhibition of 17α-hydroxylase/C17,20-lyase (in words): significant inhibition
